Patent publication EP0845210A1, “New herbicidal compositions” (RHONE-POULENC AGRICULTURE LTD., priority 1994, dated 1996)

Experiments:
Assay type in all cases: in vivo
Abutilon theophrasti [1] = test: Procedure B: pre-emergence field trial (research farm in Brazil), visual assessment 36 or 40 days from sowing
Experimental: (§1) The experiments were carried out pre-emergence of the weed species at • (i) a research farm in Brazil with Compounds B and C (each formulated as a wettable powder) and metolachlor, (formulated as a suspension concentrate); and • (ii) in research farms in the Mid West corn belt of the United States with compound D (formulated as a wettable powder) and metolachlor (formulated as a suspension concentrate).
(§2) A solution of the two active ingredients (a.i.) was mixed for one hour and applied at a spray volume of 231 litres/hectare to a 3 metre by 5 metre test plot comprising the weed species which were sown 2 days earlier. 3 replicates were performed. A control plot was sprayed with a solution not containing test compound. Visual assessment of phytotoxicity was made after 36 or 40 days from sowing each weed species based on a comparison with the control plot.
(§3) The tables below show the observed percentage control of the weed species by each combination, with the figure in brackets representing the predicted value using the Limpel formula. The dose rates are in grammes per hectare. Table E1

Abutilon theophrasti [2] = test: Procedure D: pre-emergence field trial (Volga, Brookings), visual assessment about 26 days after treatment
Experimental: (§4) The following experiments were carried out pre-emergence of the weed species. Compound A, formulated as a wettable dispersible granule as described in Example 1 herebelow (750g per kilogram) and each acetochlor (used as the commercially available formulation "Harness" (trade mark), an emulsifiable concentrate containing 960g of acetochlor per kilogram, and which also contains the safening agent flurazole, metolachlor (used as the commercially available formulation "Duelor" (trade mark), an emulsifiable concentrate emulsifiable concentrate containing 960g of metolachlor per kilogram), alachlor (used as the commercially available formulation "Lasso" (trade mark), an emulsifiable concentrate containing 480g of alachlor per kilogram) and dimethenamid (used as the commercially available formulation "Frontiere" (trade mark), a flowable containing 900g/l active ingerident) were dissolved in water and sprayed at a volume rate of 187 litres/hectare on various test plots (10 square meters in area) either alone or in mixtures. The soil was a clay-loam, with a pH of 7, the experiments being conducted in June in Volga, Brookings, U.S.A. The various weed and crop species were drill sown and the various compositions were applied on the same day after drilling. Three replicates were performed and the efficacy of the various mixtures were determined by visual assessment of the percentage phytotoxicity in comparison with an untreated control. Assessment was made about 26 days after treatment. In the Tables which follow the dose is expressed in grammes per hectare and the figures in brackets represent the expected results according to the Colby formula.

Panicum miliaceum = test: as above
Experimental: as §4

Helianthus annuus = test: as above
Experimental: as §4

Echinochloa crus-galli = test: Procedure A: pre-emergence glasshouse pot test, growth reduction assessed two weeks after treatment
Source text: (§5) Seed of the various species of broad-leaf or grass weeds were sown in unsterilised clay loam soil in 7 centimetre by 7 centimetre plastic plant pots. The pots were watered and allowed to drain. The soil surface was then sprayed with ranges of concentrations of either the individual herbicide or mixtures of two herbicides in various proportions, dissolved in a 50:50 by volume solution of acetone and water, using a track sprayer set to deliver the equivalent of 290 l/ha. All herbicides were used as unformulated technical materials except dimethenamid, which was used as the commercial formulation "Frontiere" (trade mark), a flowable containing 900g/l active ingredient; and alachlor, which was used as "Lasso" (trade mark), an emulsifiable concentrate formulation containing 480g/l active ingredient.
(§6) Treated pots were placed at random in four replicate blocks per treatment for each plant species. The pots were held, in a glasshouse, standing on moist capillary matting, under lights and with overhead watering twice daily.
(§7) Two weeks after treatment the percent reduction in plant growth, compared to an untreated control, was assessed.
(§8) Mean percent reduction in plant growth was calculated for each treatment. Dose/mean response was plotted on Log concentration/Probability graph paper, and lines fitted by eye. For herbicide mixtures a dose/response line for the first herbicide was drawn for each dose rate of the second herbicide and a dose/response line for the second herbicide was drawn for each dose rate of the first herbicide. The doses representing a 90% reduction in plant growth (LD90's) were read from these lines and plotted on graphs whose axes were dose rates of the two herbicides. The line joining these points is an Isobole i.e. a line joining points (mixtures) of equal activity, as described by P.M.L. Tammes, Neth. J. Plant Path. 70 (1964) : 73-80. A line was also drawn joining the LD90's of the individual components of the mixture. This line represents the theoretical isobole if the effect of the two components is additive i.e. there is no interaction between them. Isoboles falling below this line indicate synergy between the components while lines lying above it indicate antagonism.
(§9) In the tables that follow 'dose' represents the dose rate in grammes per hectare of the active ingredient used; and the figures for the weed control are percentages reduction in growth when compared with the untreated controls.

Digitaria sanguinalis = test: as above
Source text: as §5, §6, §7, §8, §9

maize (Zea mays) = test: Procedure D: pre-emergence field trial (Volga, Brookings), crop phytotoxicity about 26 days after treatment
Experimental: as §4

Setaria faberii = test: Procedure B: pre-emergence field trial (Mid West corn belt research farms), visual assessment 36 or 40 days from sowing
Experimental: as §1, §2, §3

Amaranthus retroflexus [3] = test: as above
Experimental: as §1, §2, §3

Setaria viridis = test: Procedure A: pre-emergence glasshouse pot test, growth reduction assessed two weeks after treatment
Source text: as §5, §6, §7, §8, §9

Amaranthus retroflexus [4] = test: as above
Source text: as §5, §6, §7, §8, §9

[5] = metolachlor 480 g/ha alone, 1st Research Farm
[6] = metolachlor 480 g/ha alone, 2nd Research Farm
[7] = metolachlor 480 g/ha alone, 3rd Research Farm
[8] = D 37.5 g/ha alone, 1st Research Farm
[9] = D 37.5 g/ha alone, 2nd Research Farm
[10] = D 37.5 g/ha alone, 3rd Research Farm
[11] = acetochlor 480 g/ha alone (Harness, contains safener flurazole)

Structure (SMILES): CS(=O)(=O)c1ccc(C(=O)c2cnoc2C2CC2)c(Cl)c1 [Compound C, 4-(2-chloro-4-methylsulphonyl)benzoyl-5-cyclopropylisoxazole]
- observed percentage control of the weed species (Abutilon theophrasti [1]; C 50 g/ha alone): 73%

Structure (SMILES): COCC(C)N(C(=O)CCl)c1c(C)csc1C (stereo not drawn) [Dimethenamid, 2-chloro-N-(2,4-dimethyl-3-thienyl)-N-(2-methoxy-1-methyl)ethyl-acetamide, reference compound]
- percentage phytotoxicity (Abutilon theophrasti [2]; dimethenamid 200 g/ha alone): 12%
- percentage phytotoxicity (Panicum miliaceum; dimethenamid 200 g/ha alone): 27%
- percentage phytotoxicity (Helianthus annuus; dimethenamid 200 g/ha alone): 3%
- percent reduction in plant growth (Echinochloa crus-galli; dimethenamid 4 g/ha alone): 17.5%
- percent reduction in plant growth (Echinochloa crus-galli; dimethenamid 8 g/ha alone): 38.75%
- percent reduction in plant growth (Echinochloa crus-galli; dimethenamid 16 g/ha alone): 81.25%
- percent reduction in plant growth (Echinochloa crus-galli; dimethenamid 32 g/ha alone): 93.5%
- percent reduction in plant growth (Echinochloa crus-galli; dimethenamid 64 g/ha alone): 97.5%
- percent reduction in plant growth (Echinochloa crus-galli; dimethenamid 128 g/ha alone): 100%
- percent reduction in plant growth (Digitaria sanguinalis; dimethenamid 4 g/ha alone): 16.25%
- percent reduction in plant growth (Digitaria sanguinalis; dimethenamid 8 g/ha alone): 15%
- percent reduction in plant growth (Digitaria sanguinalis; dimethenamid 16 g/ha alone): 77.5%
- percent reduction in plant growth (Digitaria sanguinalis; dimethenamid 32 g/ha alone): 89.75%
- percent reduction in plant growth (Digitaria sanguinalis; dimethenamid 64 g/ha alone): 98.25%
- percent reduction in plant growth (Digitaria sanguinalis; dimethenamid 128 g/ha alone): 92.5%
- percent reduction in plant growth (Digitaria sanguinalis; dimethenamid 256 g/ha alone): 98.75%
- percentage phytotoxicity (maize (Zea mays); dimethenamid 200 g/ha alone): 0%

Structure (SMILES): CCc1cccc(C)c1N(C(=O)CCl)C(C)COC (stereo not drawn) [Metolachlor, 2-chloro-6'-ethyl-N-(2-methoxy-1-methylethyl)acet-o-toluidide, reference compound]
- observed percentage control of the weed species (Setaria faberii; [5]): 91%
- observed percentage control of the weed species (Setaria faberii; [6]): 93%
- observed percentage control of the weed species (Setaria faberii; [7]): 84%
- observed percentage control of the weed species (Amaranthus retroflexus [3]; [5]): 38%
- observed percentage control of the weed species (Amaranthus retroflexus [3]; [6]): 78%
- observed percentage control of the weed species (Amaranthus retroflexus [3]; [7]): 91%
- observed percentage control of the weed species (Abutilon theophrasti [1]; metolachlor 1000 g/ha alone): 0%
- percentage phytotoxicity (Abutilon theophrasti [2]; metolachlor 480 g/ha alone): 10%
- percentage phytotoxicity (Panicum miliaceum; metolachlor 480 g/ha alone): 52%
- percentage phytotoxicity (Helianthus annuus; metolachlor 480 g/ha alone): 3%
- percent reduction in plant growth (Setaria viridis; metolachlor 2 g/ha alone): 5%
- percent reduction in plant growth (Setaria viridis; metolachlor 4 g/ha alone): 22.5%
- percent reduction in plant growth (Setaria viridis; metolachlor 8 g/ha alone): 38.75%
- percent reduction in plant growth (Setaria viridis; metolachlor 16 g/ha alone): 61.25%
- percent reduction in plant growth (Setaria viridis; metolachlor 32 g/ha alone): 87.5%
- percent reduction in plant growth (Setaria viridis; metolachlor 64 g/ha alone): 98%
- percent reduction in plant growth (Amaranthus retroflexus [4]; metolachlor 31.25 g/ha alone): 46.25%
- percent reduction in plant growth (Amaranthus retroflexus [4]; metolachlor 62.5 g/ha alone): 53.75%
- percent reduction in plant growth (Amaranthus retroflexus [4]; metolachlor 125 g/ha alone): 35%
- percent reduction in plant growth (Amaranthus retroflexus [4]; metolachlor 250 g/ha alone): 85%
- percent reduction in plant growth (Amaranthus retroflexus [4]; metolachlor 500 g/ha alone): 95%
- percentage phytotoxicity (maize (Zea mays); metolachlor 480 g/ha alone): 0%

Structure (SMILES): CS(=O)(=O)c1cc(Cl)ccc1C(=O)c1cnoc1C1CC1 [Compound D, 4-(4-chlor-2-methylsulphonyl)benzoyl-5-cyclopropylisoxazole]
- observed percentage control of the weed species (Setaria faberii; [8]): 22%
- observed percentage control of the weed species (Setaria faberii; [9]): 62%
- observed percentage control of the weed species (Setaria faberii; [10]): 32%
- observed percentage control of the weed species (Amaranthus retroflexus [3]; [8]): 38%
- observed percentage control of the weed species (Amaranthus retroflexus [3]; [9]): 10%
- observed percentage control of the weed species (Amaranthus retroflexus [3]; [10]): 10%

Structure (SMILES): CCOCN(C(=O)CCl)c1c(C)cccc1CC [Acetochlor, 2-chloro-N-ethoxymethyl-6'-ethylacet-o-toluidide, reference compound]
- percentage phytotoxicity (Abutilon theophrasti [2]; [11]): 35%
- percentage phytotoxicity (Panicum miliaceum; [11]): 72%
- percentage phytotoxicity (Helianthus annuus; [11]): 10%
- percent reduction in plant growth (Echinochloa crus-galli; acetochlor 3.75 g/ha alone): 12.5%
- percent reduction in plant growth (Echinochloa crus-galli; acetochlor 7.5 g/ha alone): 36.25%
- percent reduction in plant growth (Echinochloa crus-galli; acetochlor 15 g/ha alone): 55%
- percent reduction in plant growth (Echinochloa crus-galli; acetochlor 30 g/ha alone): 88.75%
- percent reduction in plant growth (Echinochloa crus-galli; acetochlor 60 g/ha alone): 98.75%
- percent reduction in plant growth (Echinochloa crus-galli; acetochlor 120 g/ha alone): 98.75%
- percent reduction in plant growth (Echinochloa crus-galli; acetochlor 240 g/ha alone): 100%
- percent reduction in plant growth (Digitaria sanguinalis; acetochlor 3.75 g/ha alone): 0%
- percent reduction in plant growth (Digitaria sanguinalis; acetochlor 7.5 g/ha alone): 0%
- percent reduction in plant growth (Digitaria sanguinalis; acetochlor 15 g/ha alone): 7.5%
- percent reduction in plant growth (Digitaria sanguinalis; acetochlor 30 g/ha alone): 32.5%
- percent reduction in plant growth (Digitaria sanguinalis; acetochlor 60 g/ha alone): 85%
- percent reduction in plant growth (Digitaria sanguinalis; acetochlor 120 g/ha alone): 100%
- percent reduction in plant growth (Digitaria sanguinalis; acetochlor 240 g/ha alone): 98.75%
- percentage phytotoxicity (maize (Zea mays); [11]): 0%

Structure (SMILES): CS(=O)(=O)c1ccc(C(=O)c2cnoc2C2CC2)c(C(F)(F)F)c1 [Compound B, 5-cyclopropyl-4-(4-methylsulphonyl-2-trifluoromethyl)benzoylisoxazole]
- observed percentage control of the weed species (Abutilon theophrasti [1]; B 50 g/ha alone): 75%

Structure (SMILES): CCc1cccc(CC)c1N(COC)C(=O)CCl [Alachlor, 2-chloro-2',6'-diethyl-N-methoxymethylacetanilide, reference compound]
- percentage phytotoxicity (Abutilon theophrasti [2]; alachlor 480 g/ha alone): 20%
- percentage phytotoxicity (Panicum miliaceum; alachlor 480 g/ha alone): 53%
- percentage phytotoxicity (Helianthus annuus; alachlor 480 g/ha alone): 3%
- percent reduction in plant growth (Echinochloa crus-galli; alachlor 4 g/ha alone): 18.75%
- percent reduction in plant growth (Echinochloa crus-galli; alachlor 8 g/ha alone): 5%
- percent reduction in plant growth (Echinochloa crus-galli; alachlor 16 g/ha alone): 12.5%
- percent reduction in plant growth (Echinochloa crus-galli; alachlor 32 g/ha alone): 46.25%
- percent reduction in plant growth (Echinochloa crus-galli; alachlor 64 g/ha alone): 91.25%
- percent reduction in plant growth (Echinochloa crus-galli; alachlor 128 g/ha alone): 98.75%
- percent reduction in plant growth (Digitaria sanguinalis; alachlor 4 g/ha alone): 0%
- percent reduction in plant growth (Digitaria sanguinalis; alachlor 8 g/ha alone): 25%
- percent reduction in plant growth (Digitaria sanguinalis; alachlor 16 g/ha alone): 6.25%
- percent reduction in plant growth (Digitaria sanguinalis; alachlor 32 g/ha alone): 37.5%
- percent reduction in plant growth (Digitaria sanguinalis; alachlor 64 g/ha alone): 75%
- percent reduction in plant growth (Digitaria sanguinalis; alachlor 128 g/ha alone): 95%
- percentage phytotoxicity (maize (Zea mays); alachlor 480 g/ha alone): 0%
